Measured values published in US7691905B2, “Inhibition of melanogenesis and melanoma metastasis with p-aminobenzoic acid (PABA)” (New York University, priority 2002, dated 2010).

Key:
[1] = system: Lewis Lung Carcinoma (LLC) cells; assay: Lewis Lung Carcinoma tumor growth assay on chick embryo CAM; assay type: in vivo; settings: cells grown with 0.1 mg/ml PABA for 3 weeks, 7 days
Description: The effect of PABA on the growth of carcinoma tumors was tested using the Lewis Lung Carcinoma (LLC) tumor growth assay. (Mauceri H J et al. (2002) Cancer Chemother Pharmacol 50:412-418.) LLC cells were grown in DMEM medium in the presence or absence of 0.1 mg/ml PABA for 3 weeks. Cells were harvested and 2×10^6 cells from each group were inoculated in the CAMs of 10-day old chick embryos. The embryos were allowed to develop for a further seven days. At the end of the 7-day incubation period, the embryos were sacrificed and the tumors removed and wet weights determined.

[2] = system: Lewis Lung Carcinoma (LLC) cells; assay: Lewis Lung Carcinoma cell proliferation, direct cell counts; assay type: cell-based; settings: 0.1 mg/ml PABA, DMEM, 48-hour incubation
Description: The anti-proliferative effect of PABA on carcinoma cells was tested on Lewis Lung Carcinoma (LLC) cells. (Young M R et al. (2003) Int J Cancer 103:38-44.) Cells were grown in DMEM medium in the presence or absence of 0.1 mg/ml PABA. Cell proliferation was monitored by direct cell counts over a 48-hour incubation period.

[3] = system: B16 melanoma cells; assay: Chick embryo tumor growth assay, B16 melanoma on CAM; assay type: in vivo; settings: cells grown with 0.1 mg/ml PABA for 6 weeks, CAM of 10-day old chick embryos, 7 days
Description: The effect of PABA on solid tumor growth in vivo were evaluated using the chick embryo tumor growth assay. (Petitclerc E et al. (2000) J Biol Chem 275:8051-8061.) B16 melanoma cells were grown in the presence or absence of 0.1 mg/ml PABA for 6 weeks. Cells were harvested and 2.5×10^5 cells from each group were inoculated in the chorioallantoic membranes (CAM) of 10-day old chick embryos. The embryos were allowed to develop for a further seven days. At the end of the 7-day incubation period, the embryos were sacrificed and the tumors removed and wet weights determined. Tumors formed from B16 melanoma cells treated with PABA were, on average, 60% smaller than tumors derived from untreated B16 melanoma cells (FIG. 4).

[4] = system: B16F10 melanoma cells; assay: Chick embryo tumor growth assay, B16F10 melanoma, PABA and ionizing radiation; assay type: in vivo; settings: tumor wet weight after 7 days
Description: The chick embryo tumor growth assay (Petitclerc E et al. (2000) J Biol Chem 275:8051-8061) was used to determine whether PABA enhances the effect of ionizing radiation to inhibit tumor growth in vivo. Four groups of chick embryos were studied. […] There were 5 to 10 chick embryos in each group.
The groups were created in the following manner. B16F10 melanoma cells were cultured for 14 days in growth medium in the absence of PABA or in the presence of PABA at a concentration of 100 μg/ml. The cells were harvested, washed, and resuspended in sterile PBS. The B16F10 melanoma cells were implanted on the CAMs of 10-day-old chick embryos, which were then incubated for at least 24 hours. The incubated chick embryos (some that were cultured in the absence of PABA and some that cultured in the presence of PABA) were treated with a single fraction dose of ionizing radiation (5.0 Gy). The embryos were incubated for 7 days and then the chick embryos of each group were sacrificed. The tumors were resected and tumor growth was assessed by measuring the wet weights of the resected tumors.

[5] = system: B16 melanoma cells; assay: B16 melanoma cell proliferation with ionizing radiation, direct cell counts; assay type: cell-based; settings: 0.1 mg/ml PABA plus single fraction dose of 10 Gy, 3-day incubation
Description: (§1) Cell proliferation was determined by direct cell counts.
(Kinnaert E et al. (2000) Radiation Res 154:497-502.) Thus, blocking melanin synthesis or melanogenesis may cause melanoma cells to become much more sensitive to radiation therapy. To test the effect of PABA on the anti-proliferative effects of ionizing radiation, B16 melanoma cells grown in the presence or absence of 0.1 mg/ml PABA were treated with a single fraction dose of 10 Gy of ionizing radiation. Cell proliferation was monitored by direct cell counts over a 3-day incubation period.

[6] = system: B16 melanoma cells; assay: Intracellular melanin, colour of cell pellets; assay type: cell-based; settings: 0.1 mg/ml PABA, three weeks of culture; untreated pellets black
Description: To determine whether PABA inhibits the intracellular synthesis of melanin in B16 cells, cells were grown in DMEM in the presence or absence of 0.1 mg/ml PABA. Following three weeks of culture, cells were collected by centrifugation. Cell pellets from cells cultured in the absence of PABA appeared black, as normal, indicating the presence of melanin.

[7] = system: B16 melanoma cells; assay: B16 melanoma experimental metastasis in chick embryo model; assay type: in vivo; settings: cells grown with 0.1 mg/ml PABA for one to three weeks, injected into 12-day old chick embryos, 7-day incubation
Description: The number of melanoma metastases were measured by counting the number of metastatic lung tumor lesions present in lungs from sacrificed chick embryos. The effect of PABA on the aggressiveness and invasiveness of B16 melanoma was measured in a chick embryo model. (Brooks PC et al. (1994) Cell 79:1157-1164.) The effects of PABA on B16 experimental metastasis in vivo were evaluated to determine the role melanin synthesis plays in the aggressiveness and invasiveness of melanoma metastasis. B16 melanoma cells grown in the presence or absence of 0.1 mg/ml PABA for one to three weeks were injected into 12-day old chick embryos. At the end of a 7-day incubation period, the embryos were sacrificed and the number of metastatic lung tumor lesions were quantified.

[8] = system: tyrosinase; assay: Tyrosinase activity, Dopachrome formation from L-DOPA (OD 475 nm); assay type: biochemical; settings: L-DOPA 8.0 mM, 800 U purified tyrosinase
Description: Tyrosinase activity was assessed by measuring the formation of Dopachrome from L-DOPA using absorbance at 475 nm wavelength.
The effects of PABA on tyrosinase activity were evaluated by measuring the formation of Dopachrome using a previously published method. (Heidcamp W (1995), supra.) L-DOPA (8.0 mM) was resuspended in sodium citrate buffer and 800 U of purified tyrosinase was added. Tyrosinase activity was measured by monitoring the formation of Dopachrome by measuring the optical density of the mixture at a wavelength of 475 nm. To assess the effects of PABA, the reactions were performed in the presence or absence of PABA. As a control, reactions were performed in the presence of adenosine instead of PABA.

[9] = system: B16 melanoma cells; assay: Melanin content of culture medium by absorbance at 405 nm and 660 nm; assay type: cell-based; settings: PABA 0.5 mg/day and 1.0 mg/day, DMEM
Description: Melanin levels were determined by absorbance at 405 nm wavelength (A) and absorbance at 660 nm wavelength (B). To further analyze the effects of PABA on B16 melanoma cell melanin secretion, PABA was added at concentrations of 0.5 mg/day and 1.0 mg/day to B16 melanoma cells cultured in DMEM. Samples of the culture medium were then analyzed for melanin content by measuring absorbance at wavelengths of 405 nm and 660 nm.

[10] = system: B16 melanoma cells; assay: Melanin secretion of B16 melanoma cells, colour of DMEM medium; assay type: cell-based; settings: 0.1 mg/ml PABA in DMEM, seven days; unsupplemented medium turned brown
Description: The RPMI medium remained red due to the inhibition of melanin secretion. One of the major components in RPMI that is absent in DMEM is PABA. To assess the effect of PABA on melanin secretion from B16 cells, PABA was added to DMEM culture medium to achieve the same concentration as that found in the RPMI medium: 0.1 mg of PABA per milliliter of medium. Cells were grown in PABA-supplemented DMEM medium for seven days. The PABA-supplemented medium remained red, while the unsupplemented medium turned brown.

[11] = system: B16F10 melanoma cells; assay: In vivo xenograft study of PABA and radiation, B16F10 melanoma; parameters: species or system Balb/c nude mice; settings: tumor volume after 15 days
Description: 1×10^6 B16F10 melanoma cells (cultured in the absence of PABA) were implanted subcutaneously into Balb/c nude mice. Intraperitoneal injections of PABA at a concentration of 50 mg/kg were started 3 days after implantation of the tumor cells and continued daily. Ten days following tumor cell implantation, mice were either not irradiated or were irradiated with 3 fractions of 3 Gy every other day for a total dose of 9 Gy.
After 15 days, the animals were sacrificed and the tumors were resected. The tumors were measured and their volumes were calculated.

[12] = system: human G-361 melanoma cells; assay: Human G-361 melanoma cell proliferation with ionizing radiation, direct cell counts; assay type: cell-based; settings: 0.1 mg/ml PABA plus 20 Gy
Description: as §1
The radiation-enhancing effect of PABA on melanoma observed in B16 melanoma cells was confirmed in the pigmented human melanoma cell line G-361 (ATCC Number CRL-1424, (1978) Pediatr Res 12:485.) The human G-361 melanoma cells are more resistant to radiation than B16 melanoma cells and thus require a higher dose of ionizing radiation to inhibit growth, compared to B16 cells. Human G-361 melanoma cells were treated with 20 Gy of radiation, either alone or in combination with 0.1 mg/ml PABA, as described in example 7.

[13] = system: transplantable melanoma; settings: hamsters; Zbytniewski et al. 1977; cited from earlier work
[14] = system: B16 melanoma cells; assay: B16 melanoma cell proliferation with PABA and/or Taxol, direct cell counts; assay type: cell-based; settings: 10.0 μM paclitaxel and/or 0.1 mg/ml PABA, DMEM, 48-hour incubation
Description: as §1
The ability of PABA to enhance the anti-proliferative effect of the chemotherapeutic agent, Taxol, was tested in B16 melanoma cells. […] Cell proliferation was monitored by direct cell counts over a 48-hour incubation period.

SMILES: Nc1ccc(C(=O)O)cc1 [PABA, para-Aminobenzoic acid]
- tumor size (wet weight) vs tumors from untreated LLC cells [1]: significantly larger
- cell proliferation [2]: increased the proliferation of LLC cells
- tumor size (wet weight) reduction vs tumors from untreated cells [3]: 60%
- inhibition of tumor growth as compared to the control group ([4]; PABA 100 μg/ml plus single fraction ionizing radiation 5.0 Gy): about 90%
- inhibition of tumor growth as compared to the control group ([4]; PABA alone, cells cultured 14 days with 100 μg/ml PABA): about 75%
- cell proliferation after radiation, PABA vs no PABA [5]: increased the anti-proliferative and cytotoxic effects
- colour of cell pellets (melanin accumulation) [6]: much lighter in color
- number of metastatic lung tumor lesions [7]: time dependent inhibition of B16 melanoma metastasis
- tyrosinase activity (Dopachrome formation) [8]: dose dependent inhibition of Dopachrome formation
- melanin secretion (absorbance of medium at 405 nm and 660 nm) [9]: time dependent and concentration dependent inhibition of melanin secretion
- colour of culture medium (accumulation of secreted melanin) [10]: remained red
- inhibition of tumor growth as compared to control ([11]; PABA 50 mg/kg i.p. daily plus 3 fractions of 3 Gy (9 Gy), P<0.002): about 95%
- effect on tumor growth as compared to control ([11]; PABA alone 50 mg/kg i.p. daily, P>0.100): minimal effect on tumor growth
- cell proliferation, PABA in combination with radiation [12]: essentially completely inhibited the proliferation

SMILES: NCc1ccc(C(=O)O)cc1 [PAMBA, para-Aminomethylbenzoic acid]
- invasiveness of transplantable melanoma metastases [13]: reducing the invasiveness of transplantable melanoma metastases in hamsters

SMILES: CC(=O)O[C@H]1C(=O)[C@@]2(C)[C@H]([C@H](OC(=O)c3ccccc3)[C@]3(O)C[C@H](OC(=O)[C@H](O)[C@@H](NC(=O)c4ccccc4)c4ccccc4)C(C)=C1C3(C)C)[C@]1(OC(C)=O)CO[C@@H]1C[C@@H]2O [Paclitaxel, paclitaxel]
- cell proliferation [14]: significantly inhibited B16 melanoma cell proliferation
